Measurements taken from ChEMBL document CHEMBL1123474, “Neuroleptics from the 4a,9b-cis- and 4a,9b-trans-2,3,4,4a,5,9b-hexahydro-1H-pyrido[4,3-b]indole series. 2” (J Med Chem, 1986).

Key:
Rattus norvegicus [1] = assay: Inhibition of d-amphetamine induced stereotypy in rats; i.p. treatment 5 hr before amphetamine.; assay type: functional
Rattus norvegicus [2] = assay: Inhibition of d-amphetamine induced stereotypy in rats; i.p. treatment 1 hr before amphetamine.; assay type: functional
Rattus norvegicus [3] = assay: Inhibition of d-amphetamine induced stereotypy in rats; i.p. treatment 24 hr before amphetamine.; assay type: functional
Rattus norvegicus [4] = organism: Rattus norvegicus; assay: animal or person; settings: ip
Rattus norvegicus [5] = organism: Rattus norvegicus; assay: animal or person; settings: ip; remark: listed apart in the source
Rattus norvegicus [6] = organism: Rattus norvegicus; assay: animal or person; settings: ip; remark: listed apart in the source
[7] = Rattus norvegicus, ip, read-out: ED50

Compound | ED50 (Rattus norvegicus [2]; [7]) [mg/kg] | ED50 (Rattus norvegicus [3]; [7]) [mg/kg] | ED50 (Rattus norvegicus [1]; [7]) [mg/kg] | further results
OC(CCCN1CC[C@@H]2[C@@H](C1)c1cc(F)ccc1N2c1ccc(F)cc1)c1ccccc1 (some centres not stated) | 0.18 | 0.18 | – | ED50 (Rattus norvegicus [1]; ip): 0.18 mg/kg
OCCCCN1CC[C@@H]2[C@@H](C1)c1cc(F)ccc1N2c1ccc(F)cc1 | 0.03 | ~1 | 0.009 | –
O=C(CCCN1CC[C@@H]2[C@@H](C1)c1cc(F)ccc1N2c1ccc(F)cc1)c1ccc(F)cc1 | > 1 | 0.03 | 0.1 | –
CN1CC[C@@H]2[C@@H](C1)c1cc(F)ccc1N2c1ccc(F)cc1 | 0.14 | > 3.2 | 0.23 | –
OC(CCCN1CC[C@@H]2[C@@H](C1)c1cc(F)ccc1N2c1ccccc1)c1ccc(F)cc1 (stereo in doubt; 24) | – | – | – | ED50 (Rattus norvegicus [1]): 0.08 mg/kg; ED50 (Rattus norvegicus [2]): 0.23 mg/kg; ED50 (Rattus norvegicus [3]): 0.11 mg/kg
OC(CCCN1CC[C@@H]2[C@@H](C1)c1cc(F)ccc1N2c1ccccc1)c1ccc(F)cc1 (stereo in doubt; 25) | – | – | – | ED50 (Rattus norvegicus [1]): ~0.032 mg/kg; ED50 (Rattus norvegicus [2]): 0.1 mg/kg; ED50 (Rattus norvegicus [3]): 0.032 mg/kg
c1ccc(N2c3ccccc3[C@@H]3CNCC[C@@H]32)cc1 | > 32 | – | > 32 | –
Fc1ccc(N2c3ccc(F)cc3[C@@H]3CNCC[C@H]32)cc1 | > 3.2 | – | > 3.2 | –
O=C(CCCN1CCC(O)(c2ccc(Cl)cc2)CC1)c1ccc(F)cc1 [HALOPERIDOL] | – | – | – | ED50 (Rattus norvegicus [4]): 0.1 mg/kg; ED50 (Rattus norvegicus [5]): 0.1 mg/kg; ED50 (Rattus norvegicus [6]): > 3.2 mg/kg
OC(CCCN1CC[C@@H]2[C@@H](C1)c1ccccc1N2c1ccc(F)cc1)c1ccc(F)cc1 (some centres not stated) | ~0.32 | 0.032 | 0.032 | –
OC(CCCN1CC[C@H]2[C@@H](C1)c1cc(F)ccc1N2c1ccc(F)cc1)c1ccc(F)cc1 (some centres not stated) | 22 | 9.1 | 1.1 | –
OC(CCCN1CC[C@@H]2[C@@H](C1)c1cc(F)ccc1N2c1ccc(F)cc1)c1ccc(F)cc1 (some centres not stated) | 0.41 | 0.03 | 0.03 | –
COc1ccc(C(O)CCCN2CC[C@@H]3[C@@H](C2)c2cc(F)ccc2N3c2ccc(F)cc2)cc1 (some centres not stated) | 0.36 | 0.1 | 0.01 | –
OC(CCCN1CCc2c(c3cc(F)ccc3n2-c2ccc(F)cc2)C1)c1ccc(F)cc1 (configuration not stated) [FLUTROLINE] | 0.1 | 0.32 | 0.1 | –
CN1CC[C@@H]2Nc3ccccc3[C@@H]2C1 [CARBIDINE] | > 32 | – | > 32 | –
CN1CC[C@H]2[C@@H](C1)c1ccccc1N2c1ccccc1 | > 32 | – | > 32 | –
c1ccc(CN2CC[C@H]3[C@@H](C2)c2ccccc2N3c2ccccc2)cc1 | > 32 | – | > 32 | –
CCN1CC[C@@H]2[C@@H](C1)c1cc(F)ccc1N2c1ccc(F)cc1 | 0.14 | > 10 | 0.18 | –
COc1ccc(/C=C/CCN2CC[C@@H]3[C@@H](C2)c2cc(F)ccc2N3c2ccc(F)cc2)cc1 | > 3.2 | ~0.32 | ~0.32 | –
OC(CCCN1CC[C@H]2[C@@H](C1)c1ccccc1N2c1ccccc1)c1ccc(F)cc1 (some centres not stated) | > 32 | – | > 32 | –
Fc1ccc(/C=C/CCN2CC[C@@H]3[C@@H](C2)c2cc(F)ccc2N3c2ccc(F)cc2)cc1 | > 1 | 0.57 | 0.57 | –
